Patent publication US5856334A, “Imidazoquinoline derivatives” (Mochida Pharmaceutical Co., Ltd., priority 1994, dated 1999)
Where “and” joins values, the source holds several entries; their conditions need not be identical. Equal values may be shown once.

How the values were obtained:
[1] = test system: intraperitoneal eosinophils; assay: Activity on Mouse Intraperitoneal Hypereosinophilic Model (Ascaris suum extract sensitization); type: in vivo, BALB/c male mice; settings: peroral, once a day, 10 administrations
Description: BALB/c male mice (body weight=ca. 25 g), divided in groups each consisting of five animals, were sensitized by intraperitoneal injection of physiological saline (0.11 mL) containing 0.1 mg of Ascaris suum extract. Seven days later, the same treatment was conducted; three days later, the animals were bled to death and injected intraperitoneally with 3 mL of physiological saline containing 1% dipotassium ethylenediaminetetraacetate (EDTA) and massaged on the abdominal part for about 30 sec. The abdominal part was incised to collect the intraperitoneal fluid, which was centrifuged at 130×g for 10 min. Fetal bovine serum (500 μl) containing 1% EDTA was added to the pellet to prepare a cell suspension. Part of the cell suspension was smeared on a glass slide with a centrifugal smearing device and subjected to Difquick staining. Thereafter, the total white blood cell (WBC) count and the eosinophil count were taken to determine the percentage of eosinophils in the total WBC. The total number of WBCs in the cell suspension was measured with an automatic hemocytometer. Multiplying the percentage of eosinophils in the total WBC by the total number of WBCs provided the number of eosinophils in the cell suspension. […] The mice neither sensitized nor administered the test compounds (untreated group), as well as the mice that were sensitized but not administered the test compounds (control group) were similarly administered 5% aqueous gum arabic perorally. Inhibition of the Increase in Eosinophils (%)={1-(test compound administered group-untreated group)/(control group-untreated group)}×100

eosinophils in BALF = assay: Activity on Model for the Increase of Eosinophils in the Rat Bronchial Alveolar Lavage Fluid (Sephadex G200 sensitization); type: in vivo, Sd male rats; settings: peroral, once a day, 10 administrations
Description: Sd male rats (8 wk old), divided in groups each consisting of five animals, were sensitized by an intravenous injection into tail vein of Sephadex G200 suspension (1 mL), that had been prepared to give a concentration of 0.75 mg/ml physiological saline. Seven days later, the same treatment was conducted; three days later, each rat was fitted with an tracheal cannula under anesthetization with pentobarbital and 7 mL of physiological saline containing 1% EDTA was injected via the cannula and recovered; this procedure was repeated three times to collect the BALF, which were centrifuged at 130×g for 10 min. Physiological saline (200 μl) containing 1% EDTA was added to the pellet to prepare a cell suspension. Part of the cell suspension was resuspended in fetal bovine serum containing 1% EDTA, smeared on a glass slide with a centrifugal smearing device and subjected to Difquick staining. Thereafter, the total WBC count and the eosinophil count were taken to determine the percentage of eosinophils in the total WBC. The total number of WBCs in the cell suspension was measured with a hemocytometer after staining with a Turck solution. Multiplying the percentage of eosinophils in the total WBC by the total number of WBCs provided the number of eosinophils in the cell suspension.
Each of the test compounds was suspended in 5% aqueous gum arabic and administered perorally to mice immediately after the initial sensitization on a once-a-day basis for a total of 10 administrations (test compound-treated group). The mice neither sensitized nor administered the test compounds (untreated group), as well as the mice that were sensitized but not administered the test compounds (control group) were similarly administered 5% aqueous gum arabic perorally.
Inhibition of the Increase of Eosinophils (%)={1-(test compound
administered group-untreated group)/(control group-untreated

[2] = Experiment on Acute Toxicity (oral, survival until 7th day); design: species or system ICR male mice; settings: mouse, in vivo, 1000 mg/kg, peroral, until the 7th day of the administration, read-out: No. of Survivals (converted)
Description: ICR male mice (body weight=ca. 35 g) weighing about 30 g were divided in groups each consisting of one or three animals and administered perorally each of the test compounds as suspended in 5% aqueous gum arabic. The mice were then examined for their survival until the 7th day of the administration.

| SMILES | Inhibition of the Increase of Eosinophils (%) ([1]; 30 mg/kg/day) | Inhibition of the Increase of Eosinophils (%) ([1]; 100 mg/kg/day) | Inhibition of the Increase of Eosinophils in BALF (%) (eosinophils in BALF; 30 mg/kg/day) | survival at 168 h [2] | other results |
| --- | --- | --- | --- | --- | --- |
| OC1CCn2c(CCc3ccccc3)nc3cccc1c32 (single isomer, unassigned; (+)) [Example 11, (+)-5,6-dihydro-2-(2-phenylethyl)-4H-imidazo[4,5,1-ij]quinolin-6-ol] | 43% | – | – | – | – |
| O=C(O)c1ccccc1COC1CCn2c(CCc3ccccc3)nc3cccc1c32 (single isomer, unassigned; (+)) [Example 24, (+)-6-(2-carboxyphenyl)methoxy-5,6-dihydro-2-(2-phenylethyl)-4H-imidazo[4,5,1-ij]quinoline] | 45% | – | – | – | – |
| O=C1CCn2c(CCc3ccccc3)nc3cccc1c32 [Example 1, 4,5-dihydro-2-(2-phenylethyl)-6H-imidazo[4,5,1-ij]quinolin-6-one] | 48% | 68% | 68% | 100% | – |
| OC1CCn2c(CCc3ccccc3)nc3cccc1c32 (centres unmarked) [Example 4, 5,6-dihydro-2-(2-phenylethyl)-4H-imidazo[4,5,1-ij]quinolin-6-ol] | 67% | 57% | 90% | 100% | – |
| c1ccc(CCc2nc3cccc4c3n2CCC4)cc1 [Example 13, 5,6-dihydro-2-(2-phenylethyl)-4H-imidazo[4,5,1-ij]quinoline] | 49% | 64% | – | 100% | – |
| Cl.NC1CCn2c(CCc3ccccc3)nc3cccc1c32 (centres unmarked) [Example 18, 5,6-dihydro-2-(2-phenylethyl)-4H-imidazo[4,5,1-ij]quinolin-6-amine hydrochloride] | 53% | – | – | – | – |
| CON=C1CCn2c(CCc3ccccc3)nc3cccc1c32 [Example 35, 5,6-dihydro-6-methoxyimino-2-(2-phenylethyl)-4H-imidazo[4,5,1-ij]quinoline] | – | – | 73% | 100% | – |
| O=C(O)c1ccccc1C(=O)OC1CCn2c(CCc3ccccc3)nc3cccc1c32 (centres unmarked) [Example 41, 5,6-dihydro-6-(o-carboxybenzoyloxy)-2-(2-phenylethyl)-4H-imidazo[4,5,1-ij]quinoline] | – | – | – | 100% | – |
| O=C(O)c1cccc(COC2CCn3c(CCc4ccccc4)nc4cccc2c43)c1C(=O)O (centres unmarked) [Example 64, 6-(2,3-dicarboxyphenyl)methoxy-5,6-dihydro-2-(2-phenylethyl)-4H-imidazo[4,5,1-ij]quinoline] | 57% | – | – | – | – |
| CC(=O)OCC(=O)[C@@]1(O)CC[C@H]2[C@@H]3CCC4=CC(=O)C=C[C@]4(C)[C@H]3[C@@H](O)C[C@@]21C [Prednisolone Acetate, 11β, 17α, 21-trihydroxypregna-1,4-diene-3,20-dione 21-acetate, reference compound] | – | – | – | – | Inhibition of the Increase of Eosinophils (%) ([1]; 10 mg/kg/day): 65%; Inhibition of the Increase of Eosinophils in BALF (%) (eosinophils in BALF; 10 mg/kg/day): 76% and 69% |
